# Marks after values point to notes of the source that are not given here. Where no end group is shown, it is not given here.
# Legend:
# [1] = test system: Patients with BPH and who optionally also had LUTS; assay: Clinical trial: inability to provide urine volume >125 mL (Qmax unable / Qmax failure) after intraprostatic injection; format: in vivo, human
# Method: (§1) Clinical trials were conducted on numerous individuals having BPH, some of whom also had LUTS. All protocols were done in accordance with applicable regulations, and carried out by physicians.
# Patients with BPH and who optionally also had LUTS were given an intraprostatic injection of either a) FT 2.5 mg in phosphate buffered saline pH 7.2 (“PBS”) or b) PBS alone, under double-blind conditions by a urologist in an office setting under ultrasound guidance. Patients were followed for 12 months to several years with regular physical examinations, laboratory tests, and evaluations of symptoms. Urinary peak flow (Qmax) was measured by flow meter readings using standard techniques, at baseline, and at 12 months in subjects who were able to urinate adequate volume of urine (>125 mL) to provide a valid test. Subjects who were unable to void >=125 mL despite drinking as much water as they wanted were classified as “Qmax unable.” The numbers of subjects who became Qmax unable was compared in different groups.
# [2] = test system: Patients with BPH and who optionally also had LUTS; assay: Clinical trial: deterioration/worsening in urinary peak flow rate (Qmax worsening) after intraprostatic injection; format: in vivo, human
# Method: as §1
# Patients with BPH and who optionally also had LUTS were given an intraprostatic injection of either a) FT 2.5 mg in phosphate buffered saline pH 7.2 (“PBS”) or b) PBS alone, under double-blind conditions by a urologist in an office setting under ultrasound guidance. Patients were followed for 12 months to several years with regular physical examinations, laboratory tests, and evaluations of symptoms. Urinary peak flow (Qmax) was measured by flow meter readings using standard techniques, at 3 months and at 12 months.
# [3] = test system: Patients with BPH and who optionally also had LUTS; assay: Clinical trial: nocturia frequency by patient questionnaires after intraprostatic injection; format: in vivo, human
# Description: Improvements in obstructive and irritative symptoms can be measured in accordance with techniques known in the art. For example, uroflowmeters are known to differentiate urine weight change to provide a continuous plot of the flow rate vs. time that is smoothed by internal electronic filtering to permit precise (±5%) measurement of Qmax. Schafer W, et al. “Good urodynamic practices: Uroflowmetry, filling cystometry and pressure-flow studies,” Neurourol Urodynamics, Vol. 21, pp. 261-74 (2002). Nocturia can be measured in a variety of manners, most of which involve patients completing a questionnaire before and after treatment to establish a baseline, and then determine the difference (improvement, lack of improvement, worsening, etc.) from baseline after treatment. Exemplary questionnaires include evaluating the scores from the nocturia question included in the International Prostate Symptom Score (IPSS), assessing the number of nocturnal voids (Boyarsky symptom score), the Madsen-Iversen Symptom Score, and the ICSmale questionnaire. See, e.g., Chartier-Kastler, et al., “The Measurement of Nocturia and its Impact on Quality of Sleep and Quality of Life in LUTS/BPH,” Eur. Urol. Supp., Vol. 5, pp. 3-11 (2006). A preferred method of measuring nocturia is by determining the mean change from baseline of the nocturia question in the IPSS (question 7). Question 7 solicits from the patient how many times over the past month they had to get up to urinate from the time they went to bed until the time they got up—the score ranging from none (score 0) to 5 or more times (score 5).
# as §1
# Patients with BPH and who optionally also had LUTS were given an intraprostatic injection of either a FT2.5 in 10 mL phosphate buffered saline pH 7.2 (“PBS”) or PBS 10 mL alone, under double-blind conditions by a urologist in an office setting under ultrasound guidance. Patients were followed for 12 months with regular physical examinations, laboratory tests, and evaluations of symptoms. The mean frequency of nocturia in the prior month was recorded in patient questionnaires.
# [4] = test system: prostate glandular epithelial cells; assay: In vitro tissue culture genetic array: apoptosis pathway activation; format: cell-based
# Description: FT is a new molecular entity which in vitro stimulates caspase pathways (activation of caspases 7, 8, and 10, caspase recruitment domains 6, 11, and 14, and DIABLO), tumor necrosis factor pathways (activation of TNF1, TNFSF6, TNFSF8, TNFSF9, CD70 ligands, and TNFRSF19L, TNFRSF25, TRAF2, TRAF3, TRAF4, TRAF6 receptors), and BCL pathways (activation of BIK, HRK, BCL2L10 and BCL3) in prostate glandular epithelial cells, based on tissue culture genetic array data. FT selectively causes loss of cell membrane integrity, mitochondrial metabolic arrest, depletion of RNA, DNA lysis and aggregation, and cell fragmentation and cell loss. The apoptotic process leads to typical ultrastructural progressive changes of membranous disruption and swelling, progressively deepening nuclear invaginations with eventual membranous bleb formations and cell death and fragmentation into apoptotic bodies. Histologically, typical apoptotic changes with positive immunohistochemical staining of markers for apoptosis are found throughout the injected areas for up to several weeks after treatment.
# [5] = about 3 months after single dose of FT ≥2.5 mg, vs control
substance,measurement,setting,value
Fexapotide Triflutate (IDQQVLSRIKLEIKRCL; also: trifluoroacetate salt) [FT],% of Qmax Unable at 12 months (% of patients with inability to provide urine volume >125 mL),"[1]; 12 months after single intraprostatic dose of 2.5 mg FT, placebo 5.9%",4.5%
same,"mean flow rate improvements, FT treated patients versus controls","[1]; Qmax at baseline and 12 months, FT 2.5 mg vs PBS",similar
same,percent decrease in patients unable to provide urine volume ≥125 ml compared to control,[1]; [5],≈ 10%
same,percentage of patients unable to provide a urine volume of ≥125 ml,"[1]; about 3 months after single dose of FT ≥2.5 mg, control 4.3%",3.9%
same,% of Qmax Worsening at 12 months,"[2]; 12 months after single intraprostatic dose of 2.5 mg FT, placebo 42%, p = 0.0239",35%
same,"flow rate mean improvements, FT treated group versus control group","[2]; Qmax at 3 months and 12 months, FT 2.5 mg vs PBS",similar
same,percent decrease in patients with deterioration/worsening in peak flow rate compared to control,[2]; [5],≈ 5.1%
same,percentage of patients who showed deterioration/worsening in peak flow rate,"[2]; about 3 months after single dose of FT ≥2.5 mg, control 37%",35.2%
same,improvement in percentage of patients with Nocturia frequency change >0 from baseline to 12 months compared to control,"[3]; 12 months after single dose of 2.5 mg FT, vs vehicle control",about 36%
same,"mean improvement in frequency of nocturia per night, FT treated subjects versus controls","[3]; 12 months follow-up, FT 2.5 mg vs PBS",similar
same,improvement in mean nocturia frequency points improvement from baseline versus control,"[3]; after 3 months, single dose of FT 2.5 mg, not significantly better than control",~8%
same,% of Patients With Nocturia Frequency Change >0 from Baseline to 12 Months,"[3]; single intraprostatic dose of 2.5 mg FT, placebo 19.19%, p = 0.0425 vs. Vehicle alone",14.15%*
same,"BCL pathways (activation of BIK, HRK, BCL2L10 and BCL3)",[4],stimulates
same,"caspase pathways (activation of caspases 7, 8, and 10, caspase recruitment domains 6, 11, and 14, and DIABLO)",[4],stimulates
same,"tumor necrosis factor pathways (activation of TNF1, TNFSF6, TNFSF8, TNFSF9, CD70 ligands, TNFRSF19L, TNFRSF25, TRAF2, TRAF3, TRAF4, TRAF6 receptors)",[4],stimulates

# Source: patent publication US20200360465A1, “METHOD OF TREATING LOWER URINARY TRACT SYMPTOMS WITH FEXAPOTIDE TRIFLUTATE” (Nymox Corporation, priority 2019, published 2020)
